# Laboratory results: patent publication US8097759B2, “Inflammatory cytokine release inhibitor” (Institute of Medicinal Molecular Design, Inc., priority 2000, dated 2012)
# System: NF-κB activation
# Assay: NF-κB activation reporter assay (pNFκB-Luc luciferase) under TNF-α stimulation
# Format: cell-based, human
# Settings: HepG2 or HeLa cells, TNF-α 40 ng/ml, 4 hours; for inhibition at 1 µg/mL / inhibition at 10 µg/mL: Homo sapiens, read-out: The rate of inhibitory activity against NF-κB activation (%)
# Description: Using a transfection reagent (Effectene; QIAGEN), the human hepatoma cell strain HepG2 or the human hysterocarcinoma cell strain HeLa was transfected with the firefly luciferase gene (Luc) contained plasmid (pNF κB-Luc Reporter Plasmid; […]) which contained oligonucleotide having five tandem copies of NF-κB binding sequences ([…]) on a upstream region of Luc, according to the QUAGEN's protocol and it was incuvated for 6-24 hours. After addition of TNF-α (40 ng/ml) with or without the test compound, the cells were incuvated for 4 hours, and intracellular luciferase activity was measured with PicaGene LT (TOYO INK MFG Co., Ltd.) and chemical luminescence measurement device ([…]luor Plus; TECAN). The inhibition ratio was measured as a ratio to the value of the luciferase activity without the test compound.
# [1] = Concentration of the agent: 1 μg/mL
# [2] = Concentration of the agent: 10 μg/mL
Structure (SMILES),inhibition at 1 µg/mL [1],inhibition at 10 µg/mL [2],The rate of inhibitory activity against NF-κB activation (%) [1],The rate of inhibitory activity against NF-κB activation (%) [2]
"O=C(Nc1cc(C(F)(F)F)cc(C(F)(F)F)c1)c1nc2ccccc2nc1O [Compound 29, N-[3,5-Bis(trifluoromethyl)phenyl]-3-hydroxyquinoxaline-2-carboxamide]",46.3%,73%,,
O=C(Nc1cccc(C(F)(F)F)c1F)c1cc(Cl)ccc1O [Compound 107],92.3%,95%,,
"COc1cc(Cl)nc(NC(=O)c2cc(Cl)ccc2O)n1 [Compound 43, 5-Chloro-N-(6-chloro-4-methoxypyrimidin-2-yl)-2-hydroxybenzamide]",25.5%,78.9%,,
O=C(Nc1cc(F)cc(F)c1)c1cc(Br)ccc1O [Compound 144],91.8%,96.8%,,
"O=C(Nc1cccc2ccccc12)c1cc(Cl)ccc1O [Compound 32, 5-Chloro-2-hydroxy-N-(1-naphthyl)benzamide]",89.3%,96.3%,,
Cc1sc(NC(=O)c2cc(Br)ccc2O)nc1-c1ccccc1 [Compound 188],83.6%,94.4%,,
O=C(Nc1cc(Cl)cc(Cl)c1)c1cc([N+](=O)[O-])ccc1O [Compound 152],-56.8%,70.6%,,
O=C(Nc1cc(Cl)cc(Cl)c1)c1cc(Cl)ccc1O [Compound 147],84.5%,96.8%,,
O=C(Nc1cc(C(F)(F)F)ccc1C(F)(F)F)c1cc(Br)ccc1O [Compound 101],95.7%,98.3%,,
"CC(=O)Oc1ccc(Cl)cc1C(=O)Nc1cc2ccccc2[nH]1 [Compound 44, 2-Aceoxy-5-chloro-N-(indol-2-yl)benzamide]",,,36.7%,65.8%
O=C(Nc1cccc(-c2ccccc2)c1)c1cc(Cl)ccc1O [Compound 165],88.2%,95.1%,,
Cc1c(NC(=O)c2cc(Cl)ccc2O)cccc1C(F)(F)F [Compound 118],94.1%,96.3%,,
O=C(Nc1cc(C(F)(F)F)cc(C(F)(F)F)c1)c1cc(C(F)(F)C(F)(F)F)ccc1O [Compound 70],93.3%,95.4%,,
O=C(Nc1cc(C(F)(F)F)ccc1[N+](=O)[O-])c1cc(Cl)ccc1O [Compound 116],86.3%,96.7%,,
O=C(Nc1cc(Cl)c(O)c(Cl)c1)c1cc(Br)ccc1O [Compound 156],7.3%,74.9%,,
CSc1ccc(C(F)(F)F)cc1NC(=O)c1cc(Cl)ccc1O [Compound 125],94.6%,99.1%,,
CC(C)(C)c1ccc(C(C)(C)C)c(NC(=O)c2cc(Cl)ccc2O)c1 [Compound 159],89.1%,96.3%,,
"O=C(Nc1cc(Cl)ccc1O)c1cc(Cl)cc(Cl)c1 [Compound 12, N-(5-Chloro-2-hydroxyphenyl)-3,5-dichlorobenzamide]",68.6%,87.3%,,

Structure (SMILES),inhibition at 1 µg/mL [1],inhibition at 10 µg/mL [2],The rate of inhibitory activity against NF-κB activation (%) [1],The rate of inhibitory activity against NF-κB activation (%) [2]
O=C(Nc1nnc(C(F)(F)F)s1)c1cc(Br)ccc1O [Compound 41],,,26.1%,90.3%
O=C(O)Cc1sc(NC(=O)c2cc(Br)ccc2O)nc1-c1ccccc1 [Compound 203],2.4%,72.1%,,
O=C(Nc1cc(Cl)cc(Cl)c1)c1ccccc1O [Compound 145],92.9%,95.5%,,
"COc1cc(NC(=O)c2cc(Cl)ccc2O)cc2ccccc12 [Compound 33, 5-Chloro-2-hydroxy-N-(4-methoxynaphthalen-2-yl)benzamide]",95.1%,99.5%,,
CC(=O)Oc1ccc(Cl)cc1C(=O)Nc1cc(C(F)(F)F)cc(C(F)(F)F)c1 [Compound 96],96.5%,99.2%,,
O=C(Nc1cc(C(F)(F)F)ccc1Cl)c1cc(Br)ccc1O [Compound 114],88.9%,94.1%,,
O=C(Nc1cc(Cl)cc(Cl)c1)c1cc(I)ccc1O [Compound 149],85.4%,97.1%,,
"COc1cc(NC(=O)c2cc(Cl)ccc2OC(C)=O)cc2ccccc12 [Compound 34, 2-Acetoxy-5-Chloro-N-(4-methoxynaphthalen-2-yl)benzamide]",90.5%,98.5%,,
O=C(Nc1cc(F)cc(C(F)(F)F)c1)c1cc(Cl)ccc1O [Compound 110],94.7%,98.9%,,
O=C(Nc1cc(C(F)(F)F)cc(C(F)(F)F)c1)c1cc(Br)ccc1O [Compound 51],94.9%,98.6%,,
O=C(Nc1nccs1)c1cc(Br)ccc1O [Compound 180],-23.1%,42.8%,,
O=C(Nc1nc(Cc2ccccc2)c(-c2ccccc2)s1)c1cc(Br)ccc1O [Compound 205],79.7%,95%,,
O=C(Nc1cc(C(F)(F)F)cc(C(F)(F)F)c1)c1cc(NC(=S)Nc2ccccc2)ccc1O [Compound 92],51.8%,97.2%,,
O=C(Nc1ccccc1C(F)(F)F)c1cc(Cl)ccc1O [Compound 104],76.2%,96.9%,,
"COc1cc(NC(=O)c2cc3ccccc3cc2O)cc(OC)c1 [Compound 20, N-(3,5-Dimethoxyphenyl)-3-hydroxy-2-naphthamide]",-12.1%,86.8%,,
O=C(Nc1cc(C(F)(F)F)cc(C(F)(F)F)c1)c1cc(-c2cccs2)ccc1O [Compound 72],79.5%,97.8%,,
"CC(=O)Oc1ccccc1C(=O)Nc1cc(C(F)(F)F)cc(C(F)(F)F)c1 [Compound 95, 2-Acetoxy-[3,5-bis(trifluoromethyl)phenyl]benzamide]",,,90.9%,97.1%
O=C(Nc1cc(C(F)(F)F)cc(C(F)(F)F)c1)c1cc(-n2cccc2)ccc1O [Compound 71],93.8%,97.9%,,
